For one assay, the system named is Hep3B cells (hepatocellular carcinoma cell line). In words: In vitro MTS cell viability assay (NCI-60 methodology), Hep3B. It is filed as cell-based. The settings on record: Homo sapiens, 48 h, Table 1, MTS, 2 days drug incubation, 50% reduction vs time zero, read-out: Hep3B LC50. The method, boiled down: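 Following NCI-60 method, MTS viability of Hep3B measured 24 h after plating (time zero) and after a further 2-day exposure to five concentrations (2-fold series). LC50 defined where [(Ti−Tz)/Tz]×100 = −50.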
A general note: Tetrazolium assays rely on reduction of a dye to a coloured formazan, in cell work by metabolically active cells.
The LC50 is the concentration lethal to half of the exposed cells or organisms. As to `Cn1ncc2c(NC(=O)c3ccc([N+](=O)[O-])s3)nc(-c3cccc(OC(F)(F)F)c3)nc21` [Compound 1-6, N-(1-methyl-6-(3-(trifluoromethoxy)phenyl)-1H-pyrazolo[3,4-d]pyrimidin-4-yl)-5-nitrothiophene-2-carboxamide], the LC50 was 1470 nM. With `Cn1ncc2c(NC(=O)c3ccc([N+](=O)[O-])s3)nc(Oc3cccc(C(F)(F)F)c3)nc21` [Compound 1-18, N-(1-methyl-6-(3-(trifluoromethyl)phenoxy)-1H-pyrazolo[3,4-d]pyrimidin-4-yl)-5-nitrothiophene-2-carboxamide], the LC50 turned out to be 1990 nM.

The same assay, now with this note: Homo sapiens, 48 h, Table 2, MTS, 2 days drug incubation, 50% reduction vs time zero, read-out: Hep3B LC50.
Regarding `Cn1ncc2c(-c3ccc(C(C)(C)C)cc3)nc(NC(=O)c3ccc([N+](=O)[O-])s3)nc21` [Compound 2-1, N-(4-(4-(tert-but)phenyl)-1-methyl-1H-pyrazolo[3,4-d]pyrimidin-6-yl)-5-nitrothiophene-2-carboxamide], the LC50 turned out to be 3130 nM.

The assay is the same for the next values; noted with them: Homo sapiens, 48 h, Table 4, MTS, 2 days drug incubation, 50% reduction vs time zero, read-out: Hep3B LC50.
On to `Cc1csc2c(NC(=O)c3ccc([N+](=O)[O-])s3)nc(-c3ccc(N(C)C)cc3)nc12` [Compound 4-10, N-(2-(4-(dimethylamino)phenyl)-7-methylthieno[3,2-d]pyrimidin-4-yl)-5-nitrothiophene-2-carboxamide], for which the LC50 was over 10000 nM. For `Cc1csc2c(NC(=O)c3ccc([N+](=O)[O-])s3)nc(-c3cccc(C(F)(F)F)c3)nc12` [Compound 4-3, N-(7-methyl-2-(3-(trifluoromethyl)phenyl)thieno[3,2-1]pyrimidin-4-yl)-5-nitrothiophene-2-carboxamide], the LC50 came to 880 nM.

Still in this assay, the particulars now being: Homo sapiens, 48 h, Table 5, MTS, 2 days drug incubation, 50% reduction vs time zero, read-out: Hep3B LC50.
As to `O=C(Nc1nc(-c2ccc(N3CCOCC3)nc2)nc2c1cnn2-c1ccccc1)c1ccc([N+](=O)[O-])s1` [Compound 5-43, N-(6-(6-morpholinopyridin-3-yl)-1-phenyl-1H-pyrazolo[3,4-d]pyrimidin-4-yl)-5-nitrothiophene-2-carboxamide], the LC50 was found to be 570 nM. `COCCOc1ccc(-c2nc(NC(=O)c3ccc([N+](=O)[O-])s3)c3cnn(-c4ccccc4)c3n2)cn1` [Compound 5-54, N-(6-(6(2-methoxyethoxy)pyridin-3-yl)-1-phenyl-1H-pyrazolo[3,4-d]pyrimidin-4-yl)-5-nitrothiophene-2-carboxamide]: the LC50 was 340 nM. Consider `Cc1noc(C)c1-c1nc(NC(=O)c2ccc([N+](=O)[O-])s2)c2cnn(-c3ccccc3)c2n1` [Compound 5-21, N-(6-(3,5-dimethylisoxazol-4-yl)-1-phenyl-1H-pyrazolo[3,4-d]pyrimidin-4-yl)-5-nitrothiophene-2-carboxamide], for which the LC50 was 760 nM. The same measure, in the same setting: the value for `N#C[C@@H]1CCN(c2nc(NC(=O)c3ccc([N+](=O)[O-])s3)c3cnn(-c4ccccc4)c3n2)C1` [Compound 5-5, (R)—N-(6-(3-cyanopyrrolidin-1-yl)-1-phenyl-1H-pyrazolo[3,4-d]pyrimidin-4-yl)-5-nitrothiophene-2-carboxamide] was 500 nM.

Still in this assay, the particulars now being: Homo sapiens, 48 h, Table 6, MTS, 2 days drug incubation, 50% reduction vs time zero, read-out: Hep3B LC50.
For `CCOCCOCCOc1cc(C)c(-c2nc(NC(=O)c3ccc([N+](=O)[O-])s3)c3cnn(-c4ccc(F)cc4)c3n2)cn1` [Compound 6-139, N-(6-(6-(2-(2-ethoxyethoxy)ethoxy)-4-methylpyridin-3-yl)-1-(4-fluorophenyl)-1H-pyrazolo[3,4-d]pyrimidin-4-yl)-5-nitrothiophene-2-carboxamide], the LC50 worked out at 210 nM. Still for that read-out and setting: the result for `CCCOC[C@@H]1CCCN1c1nc(NC(=O)c2ccc([N+](=O)[O-])s2)c2cnn(-c3ccc(F)cc3)c2n1` [Compound 6-105, (S)—N-(1-(4-fluorophenyl)-6-(2-(propoxymethyl)pyrrolidin-1-yl)-1H-pyrazolo[3,4-d]pyrimidin-4-yl)-5-nitrothiophene-2-carboxamide] reads 420 nM; that for `CC(C)(C)c1ccc(-n2ncc3c(NC(=O)c4ccc([N+](=O)[O-])s4)nc(N4CCC(F)(F)CC4)nc32)cc1` [Compound 6-67, N-(1(4-(tert-butyl)phenyl)-6-(4,4-difluoropiperidin-1-yl)-1H-pyrazolo[3,4-d]pyrimidin-4-yl)-5-nitrothiophene-2-carboxamide], 730 nM. Take `CC(C)(C)c1ccc(-n2ncc3c(NC(=O)c4ccc([N+](=O)[O-])s4)nc(OCCN4CCOCC4)nc32)cc1` [Compound 6-60, N-(1-(4-(tert-butyl)phenyl)-6-(2-morpholinoethoxy)-1H-pyrazolo[3,4-d]pyrimidin-4-yl)-5-nitrothiophene-2-carboxamide]: the LC50 turned out to be 890 nM.

For the molecule `CCOC(=O)[C@@H]1CCCN1c1nc(NC(=O)c2ccc([N+](=O)[O-])s2)c2cnn(-c3ccc(F)cc3)c2n1` [Compound 6-101, ethyl (1-(4-fluorophenyl)-4-(5-nitrothiophene-2-carboxamido)-1H-pyrazolo[3,4-d]pyrimidin-6-yl)-L-prolinate], the LC50 was over 1250 nM. With `O=C(Nc1nc(N2CCC[C@H]2CO)nc2c1cnn2-c1cccc(Cl)c1)c1ccc([N+](=O)[O-])s1` [Compound 6-31, (S)—N-(1-(3-chlorophenyl)-6(2-(hydroxymethyl)pyrrolidin-1-yl)-1H-pyrazolo[3,4-d]pyrmidin-4-yl)-5-nitrothiophene-2-carboxamide], the LC50 was over 1250 nM. On to `CC1CCC(c2nc(NC(=O)c3ccc([N+](=O)[O-])s3)c3cnn(-c4ccc(F)cc4)c3n2)CC1` (stereo not drawn) [Compound 6-143, N-(1-(4-fluorophenyl)-6-(4-methylcyclohexyl)-1H-pyrazolo[3,4-d]pyrimidin-4-yl)-5-nitrothiophene-2-carboxamide], for which the LC50 was found to be 1020 nM. As to `CCOCCOCCOc1ccc(-c2nc(NC(=O)c3ccc([N+](=O)[O-])s3)c3cnn(-c4ccc(C(F)(F)F)cc4)c3n2)cn1` [Compound 6-56, N-(6(6-(2-(2-ethoxyethoxy)ethoxy)pyridin-3-yl)-1-(4-(trifluoromethyl)phenyl)-1H-pyrazolo[3,4-d]pyrimidin-4-yl)-5-nitrothiophene-2-carboxamide], the LC50 was found to be 200 nM.

Turning to `COc1ccc(-n2ncc3c(NC(=O)c4ccc([N+](=O)[O-])s4)nc(-c4ccc(Cl)cc4F)nc32)cc1` [Compound 6-22, N-(6-(4-chloro-2-fluorophenyl)-1-(4-methoxyphenyl)-1H-pyrazolo[3,4-d]pyrimidin-4-yl)-5-nitrothiophene-2-carboxamide], the LC50 was found to be 380 nM.

As to `O=C(Nc1nc(-c2ccc3c(c2)OCO3)nc2c1cnn2-c1cccc(F)c1)c1ccc([N+](=O)[O-])s1` [Compound 6-92, N-(6-(benzo[d][1,3]dioxol-5-yl)-1-(3-fluorophenyl)-1H-pyrazolo[3,4-d]pyrimidin-4-yl)-5-nitrothiophene-2-carboxamide], the LC50 was 450 nM.

Still in this assay, the particulars now being: Homo sapiens, 48 h, Table 7, MTS, 2 days drug incubation, 50% reduction vs time zero, read-out: Hep3B LC50.
Take `O=C(Nc1nc(-c2ccc(F)nc2)nc2c1cnn2-c1ccc(Cl)cc1Cl)c1ccc([N+](=O)[O-])s1` [Compound 7-10]: the LC50 is over 1250 nM.

As to `CCOCCOCCOc1ccc(-c2nc(NC(=O)c3ccc([N+](=O)[O-])s3)c3cnn(-c4ccc(C(F)(F)F)cn4)c3n2)cn1` [Compound 7-7, N-(6-(6-(2-(2-ethoxyethoxy)ethoxy)pyridin-3-yl)-1-(5-(trifluoromethyl)pyridin-2-yl)-1H-pyrazolo[3,4-d]pyrimidin-4-yl)-5-nitrothiophene-2-carboxamide], the LC50 is 500 nM.

Staying with this assay, now noted: Homo sapiens, 48 h, Table 8, MTS, 2 days drug incubation, 50% reduction vs time zero, read-out: Hep3B LC50.
On to `C[C@@H]1C[C@@H](n2ncc3c(NC(=O)c4ccc([N+](=O)[O-])s4)nc(-c4ccc(F)nc4)nc32)CC(C)(C)C1` [Compound 8-14, N-(6-(6-fluoropyridin-3-yl)-1-((1R,5S)-3,3,5-trimethylcyclohexyl)-1H-pyrazolo[3,4-d]pyrimidin-4-yl)-5-nitrothiophene-2-carboxamide], for which the LC50 was determined as 620 nM. Regarding `CCOC(=O)N1CC[C@@H](n2ncc3c(NC(=O)c4ccc([N+](=O)[O-])s4)nc(-c4ccc(F)nc4)nc32)C1` [Compound 8-6, ethyl (R)-3-(6-(6-fluoropyridin-3-yl)-4-(5-nitrothiophene-2-carboxamido)-1H-pyrazolo[3,4-d]pyrimidin-1-yl)pyrrolidine-1-carboxylate], the LC50 is over 2000 nM. In the case of `COC(=O)c1ccc(-c2nc(NC(=O)c3ccc([N+](=O)[O-])s3)c3cnn(C4CCCCCC4)c3n2)cc1` [Compound 8-12, methyl 4-(1-cycloheptyl-4-(5-nitrothiophene-2-carboxamido)-1H-pyrazolo[3,4-d]pyrimidin-6-yl)benzoate], the LC50 turned out to be 470 nM.

The assay is the same for the next values; noted with them: Homo sapiens, 48 h, Table 9, MTS, 2 days drug incubation, 50% reduction vs time zero, read-out: Hep3B LC50.
Take `CCOCCOCCOC(=O)N1CCC(n2ncc3c(NC(=O)c4ccc([N+](=O)[O-])s4)nc(-c4cccs4)nc32)CC1` [Compound 9-10, 2-(2-ethoxyethoxy)ethyl 4-(4-(5-nitrothiophene-2-carboxamido)-6-(thiophen-2-yl)-1H-pyrazolo[3,4-d]pyrimidin-1-yl)piperidine-1-carboxylate]: the LC50 is over 3000 nM.

Still in this assay, the particulars now being: Homo sapiens, 48 h, Table 10, MTS, 2 days drug incubation, 50% reduction vs time zero, read-out: Hep3B LC50.
Consider `CCCOc1ccc(-c2nc(NC(=O)c3ccc([N+](=O)[O-])s3)c3cnn(C4CCC(F)(F)CC4)c3n2)cc1` [Compound 10-60, N-(1-(4,4-difluorocyclohexyl)-6-(4-propoxyphenyl)-1H-pyrazolo[3,4-d]pyrimidin-4-yl)-5-nitrothiophene-2-carboxamide], for which the median lethal concentration (LC50) was determined as 830 nM.

As to `COCCOc1ccc(-c2nc(NC(=O)c3ccc([N+](=O)[O-])s3)c3cnn(C4CCCCC4)c3n2)cc1` [Compound 10-50, N-(1-cyclohexyl-6-(4-(2-methoxyethoxy)phenyl)-1H-pyrazolo[3,4-d]pyrimidin-4-yl)-5-nitrothiophene-2-carboxamide], the LC50 came out at 2640 nM.

The record behind these values is patent US20240150356A1, “Pyrimidine amide compounds and use thereof” (ALPHALA CO., LTD., priority 2019, published 2024).
